Measurements reported in ChEMBL document CHEMBL1125558 (J Med Chem, 1992).

What was measured:
[1] = species on record: Rattus norvegicus; experiment: Compound was evaluated for its ability to inhibit high-affinity uptake of [3H]dopamine into striatal nerve endings of rat; type: functional
[2] = target: Sodium-dependent dopamine transporter (Rattus norvegicus, UniProt P23977); experiment: Compound was evaluated for its ability to displace [3H]mazindol binding from rat striatal membranes
[3] = system: Rattus norvegicus; experiment: Number of animals(n) completing 20 responses on either lever out of the number of animals tested (N) at dose 0.2 mg/kg evaluated by dose-response tests in trained rats(post injection interval 240 min); n/N=7/7; type: functional
[4] = system: Rattus norvegicus; experiment: Number of animals(n) completing 20 responses on either lever out of the number of animals tested (N) at dose 0.1 mg/kg evaluated by dose-response tests in trained rats(post injection interval 240 min); n/N=7/7; type: functional
[5] = system: Rattus norvegicus; experiment: Percent response at dose 0.8 mg/kg evaluated by substitution tests in trained rats(post injection interval 30 min); type: functional
[6] = system: Rattus norvegicus; experiment: Percent response at dose 0.8 mg/kg evaluated by substitution tests in trained rats(post injection interval 240 min); type: functional
[7] = system: Rattus norvegicus; experiment: Mean responses per minute at dose 0.4 mg/kg evaluated by substitution tests in trained rats(post injection interval 30 min); type: functional
[8] = system: Rattus norvegicus; experiment: Percent response at dose 0.4 mg/kg evaluated by substitution tests in trained rats(post injection interval 240 min); type: functional
[9] = system: Rattus norvegicus; experiment: Mean responses per minute at dose 0.1 mg/kg evaluated by substitution tests in trained rats(post injection interval 240 min); type: functional
[10] = system: Rattus norvegicus; experiment: Number of animals(n) completing 20 responses on either lever out of the number of animals tested (N) at dose 0.8 mg/kg evaluated by dose-response tests in trained rats(post injection interval 30 min); n/N=7/7; type: functional
[11] = system: Rattus norvegicus; experiment: Mean responses per minute at dose 0.4 mg/kg evaluated by substitution tests in trained rats(post injection interval 120 min); type: functional
[12] = system: Rattus norvegicus; experiment: Mean responses per minute at dose 0.05 mg/kg evaluated by substitution tests in trained rats(post injection interval 240 min); type: functional
[13] = system: Rattus norvegicus; experiment: Percent response at dose 0.05 mg/kg evaluated by substitution tests in trained rats(post injection interval 120 min); type: functional
[14] = system: Rattus norvegicus; experiment: Mean responses per minute at dose 0.8 mg/kg evaluated by substitution tests in trained rats(post injection interval 30 min); type: functional
[15] = system: Rattus norvegicus; experiment: Percent response at dose 0.05 mg/kg evaluated by substitution tests in trained rats(post injection interval 240 min); type: functional
[16] = system: Rattus norvegicus; experiment: Number of animals(n) completing 20 responses on either lever out of the number of animals tested (N) at dose 0.1 mg/kg evaluated by dose-response tests in trained rats(post injection interval 30 min); n/N=7/7; type: functional
[17] = system: Rattus norvegicus; experiment: Percent response at dose 0.2 mg/kg evaluated by substitution tests in trained rats(post injection interval 240 min); type: functional
[18] = system: Rattus norvegicus; experiment: Percent response at dose 0.1 mg/kg evaluated by substitution tests in trained rats(post injection interval 120 min); type: functional
[19] = system: Rattus norvegicus; experiment: Number of animals(n) completing 20 responses on either lever out of the number of animals tested (N) at dose 0.4 mg/kg evaluated by dose-response tests in trained rats(post injection interval 120 min); n/N=3/5; type: functional
[20] = system: Rattus norvegicus; experiment: Number of animals(n) completing 20 responses on either lever out of the number of animals tested (N) at dose 0.4 mg/kg evaluated by dose-response tests in trained rats(post injection interval 30 min); n/N=7/7; type: functional
[21] = system: Rattus norvegicus; experiment: Mean responses per minute at dose 0.2 mg/kg evaluated by substitution tests in trained rats(post injection interval 240 min); type: functional
[22] = system: Rattus norvegicus; experiment: Number of animals(n) completing 20 responses on either lever out of the number of animals tested (N) at dose 0.05 mg/kg evaluated by dose-response tests in trained rats(post injection interval 240 min); n/N=7/7; type: functional
[23] = system: Rattus norvegicus; experiment: Percent response at dose 0.8 mg/kg evaluated by substitution tests in trained rats(post injection interval 120 min); type: functional
[24] = system: Rattus norvegicus; experiment: Number of animals(n) completing 20 responses on either lever out of the number of animals tested (N) at dose 0.4 mg/kg evaluated by dose-response tests in trained rats(post injection interval 240 min); n/N=4/5; type: functional
[25] = system: Rattus norvegicus; experiment: Mean responses per minute at dose 0.8 mg/kg evaluated by substitution tests in trained rats(post injection interval 120 min); type: functional
[26] = system: Rattus norvegicus; experiment: Percent response at dose 0.4 mg/kg evaluated by substitution tests in trained rats(post injection interval 120 min); type: functional
[27] = system: Rattus norvegicus; experiment: Mean responses per minute at dose 0.2 mg/kg evaluated by substitution tests in trained rats(post injection interval 30 min); type: functional
[28] = system: Rattus norvegicus; experiment: Mean responses per minute at dose 0.2 mg/kg evaluated by substitution tests in trained rats(post injection interval 120 min); type: functional
[29] = system: Rattus norvegicus; experiment: Percent response at dose 0.1 mg/kg evaluated by substitution tests in trained rats(post injection interval 30 min); type: functional
[30] = system: Rattus norvegicus; experiment: Percent response at dose 0.2 mg/kg evaluated by substitution tests in trained rats(post injection interval 120 min); type: functional
[31] = system: Rattus norvegicus; experiment: Number of animals(n) completing 20 responses on either lever out of the number of animals tested (N) at dose 0.05 mg/kg evaluated by dose-response tests in trained rats(post injection interval 120 min); n/N=7/7; type: functional
[32] = system: Rattus norvegicus; experiment: Mean responses per minute at dose 0.05 mg/kg evaluated by substitution tests in trained rats(post injection interval 30 min); type: functional
[33] = system: Rattus norvegicus; experiment: Mean responses per minute at dose 0.05 mg/kg evaluated by substitution tests in trained rats(post injection interval 120 min); type: functional
[34] = species on record: Rattus norvegicus; experiment: Result of substitution tests in trained rats and expressed as effective dose(post injection interval 30 min); type: functional; settings: 0.5 h
[35] = system: Rattus norvegicus; experiment: Mean responses per minute at dose 0.1 mg/kg evaluated by substitution tests in trained rats(post injection interval 120 min); type: functional
[36] = species on record: Rattus norvegicus; experiment: Result of substitution tests in trained rats and expressed as effective dose(post injection interval 240 min); type: functional; settings: 4 h
[37] = system: Rattus norvegicus; experiment: Number of animals(n) completing 20 responses on either lever out of the number of animals tested (N) at dose 0.2 mg/kg evaluated by dose-response tests in trained rats(post injection interval 30 min); n/N=7/7; type: functional
[38] = system: Rattus norvegicus; experiment: Mean responses per minute at dose 0.1 mg/kg evaluated by substitution tests in trained rats(post injection interval 30 min); type: functional
[39] = system: Rattus norvegicus; experiment: Mean responses per minute at dose 0.8 mg/kg evaluated by substitution tests in trained rats(post injection interval 240 min); type: functional
[40] = system: Rattus norvegicus; experiment: Number of animals(n) completing 20 responses on either lever out of the number of animals tested (N) at dose 0.2 mg/kg evaluated by dose-response tests in trained rats(post injection interval 120 min); n/N=7/7; type: functional
[41] = system: Rattus norvegicus; experiment: Number of animals(n) completing 20 responses on either lever out of the number of animals tested (N) at dose 0.8 mg/kg evaluated by dose-response tests in trained rats(post injection interval 120 min); n/N=1/7; type: functional
[42] = system: Rattus norvegicus; experiment: Number of animals(n) completing 20 responses on either lever out of the number of animals tested (N) at dose 0.1 mg/kg evaluated by dose-response tests in trained rats(post injection interval 120 min); n/N=7/7; type: functional
[43] = system: Rattus norvegicus; experiment: Percent response at dose 0.05 mg/kg evaluated by substitution tests in trained rats(post injection interval 30 min); type: functional
[44] = system: Rattus norvegicus; experiment: Percent response at dose 0.2 mg/kg evaluated by substitution tests in trained rats(post injection interval 30 min); type: functional
[45] = system: Rattus norvegicus; experiment: Number of animals(n) completing 20 responses on either lever out of the number of animals tested (N) at dose 0.8 mg/kg evaluated by dose-response tests in trained rats(post injection interval 240 min); n/N=3/7; type: functional
[46] = system: Rattus norvegicus; experiment: Number of animals(n) completing 20 responses on either lever out of the number of animals tested (N) at dose 0.05 mg/kg evaluated by dose-response tests in trained rats(post injection interval 30 min); n/N=7/7; type: functional
[47] = system: Rattus norvegicus; experiment: Percent response at dose 0.4 mg/kg evaluated by substitution tests in trained rats(post injection interval 30 min); type: functional
[48] = system: Rattus norvegicus; experiment: Mean responses per minute at dose 0.4 mg/kg evaluated by substitution tests in trained rats(post injection interval 240 min); type: functional
[49] = species on record: Rattus norvegicus; experiment: Result of substitution tests in trained rats and expressed as effective dose(post injection interval 120 min); type: functional; settings: 2 h
[50] = system: Rattus norvegicus; experiment: Percent response at dose 0.1 mg/kg evaluated by substitution tests in trained rats(post injection interval 240 min); type: functional
[51] = species on record: Rattus norvegicus; experiment: Compound was evaluated for its ability to displace [3H]-mazindol binding from rat striatal membranes

Sequence of Sodium-dependent dopamine transporter (P23977 whole entry): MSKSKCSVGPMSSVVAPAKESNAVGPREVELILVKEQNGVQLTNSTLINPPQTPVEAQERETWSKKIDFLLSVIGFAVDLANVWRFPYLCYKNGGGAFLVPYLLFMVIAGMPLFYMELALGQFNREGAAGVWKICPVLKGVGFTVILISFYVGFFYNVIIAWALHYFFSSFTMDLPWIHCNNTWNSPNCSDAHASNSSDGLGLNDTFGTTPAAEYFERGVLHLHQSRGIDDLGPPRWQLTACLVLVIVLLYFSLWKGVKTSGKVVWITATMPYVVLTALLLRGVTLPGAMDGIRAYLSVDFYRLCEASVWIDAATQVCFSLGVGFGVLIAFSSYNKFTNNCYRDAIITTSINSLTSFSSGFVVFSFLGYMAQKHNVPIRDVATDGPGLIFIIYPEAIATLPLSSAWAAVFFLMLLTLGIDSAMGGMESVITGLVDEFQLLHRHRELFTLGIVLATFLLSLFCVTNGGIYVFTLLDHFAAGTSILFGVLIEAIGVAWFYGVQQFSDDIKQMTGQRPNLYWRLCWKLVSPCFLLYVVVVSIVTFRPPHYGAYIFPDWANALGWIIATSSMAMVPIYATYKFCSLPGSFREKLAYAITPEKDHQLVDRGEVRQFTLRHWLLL

## C=C[C@@H]1C2CC[C@H](C[C@@H]1OC(=O)c1ccccc1)N2C
[1]
  IC50: 1120 nM
[2]
  IC50: 1730 nM

## CN1C2CC[C@@H]1C[C@H](OC(=O)c1ccccc1)[C@@H]2/C=C/Cl
[1]
  IC50: 368 nM
[2]
  IC50: 222 nM

## C=C[C@@H]1C2CCC(C[C@@H]1c1ccc(Cl)cc1)N2C (stereo partly specified)
[3]
  No. resp animals / Total: 7 / 7
[4]
  No. resp animals / Total: 7 / 7
[5]
  Drug response: 93%
[6]
  Drug response: 100%
[7]
  Rate response: 52.8 min⁻¹
[8]
  Drug response: 91%
[9]
  Rate response: 23.5 min⁻¹
[10]
  No. resp animals / Total: 7 / 7
[11]
  Rate response: 24.9 min⁻¹
[12]
  Rate response: 28.3 min⁻¹
[13]
  Drug response: 22%
[14]
  Rate response: 33.5 min⁻¹
[15]
  Drug response: 14%
[16]
  No. resp animals / Total: 4 / 5
[17]
  Drug response: 98%
[18]
  Drug response: 75%
[19]
  No. resp animals / Total: 7 / 7
[1]
  IC50: 2.8 nM
[20]
  No. resp animals / Total: 7 / 7
[21]
  Rate response: 47.9 min⁻¹
[22]
  No. resp animals / Total: 7 / 7
[23]
  Drug response: 95%
[24]
  No. resp animals / Total: 1 / 7
[25]
  Rate response: 7.7 min⁻¹
[26]
  Drug response: 72%
[27]
  Rate response: 26.2 min⁻¹
[28]
  Rate response: 46.8 min⁻¹
[29]
  Drug response: 40%
[30]
  Drug response: 100%
[31]
  No. resp animals / Total: 7 / 7
[32]
  Rate response: 29.6 min⁻¹
[33]
  Rate response: 18.4 min⁻¹
[34]
  ED50: 0.11 mg/kg
[35]
  Rate response: 25.7 min⁻¹
[36]
  ED50: 0.09 mg/kg
[37]
  No. resp animals / Total: 7 / 7
[38]
  Rate response: 37.1 min⁻¹
[39]
  Rate response: 39.1 min⁻¹
[40]
  No. resp animals / Total: 7 / 7
[41]
  No. resp animals / Total: 5 / 5
[42]
  No. resp animals / Total: 7 / 7
[43]
  Drug response: 19%
[44]
  Drug response: 83%
[45]
  No. resp animals / Total: 3 / 7
[46]
  No. resp animals / Total: 7 / 7
[47]
  Drug response: 99%
[48]
  Rate response: 23.6 min⁻¹
[49]
  ED50: 0.08 mg/kg
[50]
  Drug response: 61%

## CN1C2CCC1[C@@H](/C=C/Cl)[C@@H](c1ccc(Cl)cc1)C2 (stereo partly specified)
[1]
  IC50: 1.3 nM
[51]
  IC50: 0.7 nM

## COC(=O)C1C2CC[C@H](C[C@@H]1c1ccc(Cl)cc1)N2C (stereo partly specified)
[1]
  IC50: 3.2 nM
